Assays:
lipoprotein lipase = molecular target: T1, lipoprotein lipase (Homo sapiens, UniProt P06858); test: Inhibition of lipoprotein lipase, glycerol stabilized triolein substrate; format: biochemical; conditions: test compound 100 μM
T1 sequence (P06858 28-475): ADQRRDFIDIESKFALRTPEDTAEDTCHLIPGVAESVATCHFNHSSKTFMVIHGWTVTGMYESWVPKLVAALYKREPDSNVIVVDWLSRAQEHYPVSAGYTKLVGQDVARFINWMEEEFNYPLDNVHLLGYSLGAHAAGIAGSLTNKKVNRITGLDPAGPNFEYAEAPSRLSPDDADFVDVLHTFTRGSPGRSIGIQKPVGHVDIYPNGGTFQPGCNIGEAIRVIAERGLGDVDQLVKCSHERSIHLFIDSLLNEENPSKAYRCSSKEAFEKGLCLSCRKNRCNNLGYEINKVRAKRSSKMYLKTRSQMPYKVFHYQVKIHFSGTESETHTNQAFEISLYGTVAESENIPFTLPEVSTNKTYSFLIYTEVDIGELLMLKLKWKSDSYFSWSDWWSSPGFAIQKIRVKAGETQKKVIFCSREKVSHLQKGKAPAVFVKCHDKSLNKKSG

[1] = molecular target: T2, hormone-sensitive lipase derived from a preparation of 3T3-cell lysate (Mus musculus, UniProt P54310); test: Inhibition of hormone-sensitive lipase from 3T3-L1 cell lysate on glycerol-stabilized triolein; format: biochemical; conditions: test compound 100 μM
T2 construct: hormone-sensitive lipase derived from a preparation of 3T3-cell lysate; endogenous in cells; host or cells: 3T3-L1 cell lysate
T2 sequence (P54310 1-759): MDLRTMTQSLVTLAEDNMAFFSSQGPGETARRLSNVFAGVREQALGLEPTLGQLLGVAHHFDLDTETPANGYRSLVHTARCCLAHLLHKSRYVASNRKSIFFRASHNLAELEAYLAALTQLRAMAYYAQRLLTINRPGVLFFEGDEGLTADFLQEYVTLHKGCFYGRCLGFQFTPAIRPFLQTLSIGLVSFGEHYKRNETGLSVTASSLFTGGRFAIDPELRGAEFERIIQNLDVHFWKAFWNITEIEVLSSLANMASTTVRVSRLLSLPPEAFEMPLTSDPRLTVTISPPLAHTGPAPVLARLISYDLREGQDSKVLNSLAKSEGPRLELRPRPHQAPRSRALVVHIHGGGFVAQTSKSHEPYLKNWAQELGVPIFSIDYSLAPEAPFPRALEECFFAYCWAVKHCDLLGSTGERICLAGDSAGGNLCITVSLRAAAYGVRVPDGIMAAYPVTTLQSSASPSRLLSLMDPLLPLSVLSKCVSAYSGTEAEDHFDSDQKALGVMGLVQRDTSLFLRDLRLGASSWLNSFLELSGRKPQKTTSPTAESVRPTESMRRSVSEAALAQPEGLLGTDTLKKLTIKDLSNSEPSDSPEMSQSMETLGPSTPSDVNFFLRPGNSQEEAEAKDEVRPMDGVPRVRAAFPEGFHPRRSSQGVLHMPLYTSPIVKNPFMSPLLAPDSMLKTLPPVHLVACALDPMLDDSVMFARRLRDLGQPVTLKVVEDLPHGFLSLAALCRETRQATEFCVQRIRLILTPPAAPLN
Description: Recombinant hormone-sensitive lipase protein isolated from a bacterial expression vector was pre-incubated with a compound of the invention (e.g., 100 μM) prior to the addition of substrate, emulsified triolein phosphatidylcholine/phosphatidylinositol (PC/PI), to initiate the reaction. At various time points, aliquots of the reaction were taken, and the level of glycerol used as an index of enzyme activity. Pharmacological specificity is determined by incubating test compound with other mammalian and non-mammalian lipase enzyme systems to assess inhibition of activity. The assay was conducted using triolein concentrations from 42 μM to 835 μM.
In a similar manner to that described in Example 4 above, 2α-benzoyloxy-4,5,7,8,11αH-eudesman-8,12-olide at 100 μM was evaluated for ability to activity of recombinant hormone-sensitive lipase and hormone-sensitive lipase derived from a preparation of 3T3-cell lysate on glycerol-stabilized triolein.

With CC1C[C@H](OC(=O)c2ccccc2)C[C@]2(C)C[C@H]3OC(=O)[C@@H](C)[C@H]3CC12 (stereo partly drawn) [2α-benzoyloxy-4,5,7,8,11αH-eudesman-8,12-olide] the “inhibition of lipoprotein lipase (in words)” value (lipoprotein lipase) was “failed to significantly inhibit”, the “Lipoprotein Lipase + test compound (enzyme activity)” value (shortened to “Lipoprotein Lipase + test compound”) (lipoprotein lipase; triolein substrate 30 μM) was 0.7 and the “Lipoprotein Lipase + test compound” value (lipoprotein lipase; triolein substrate 67 μM) was 1.8. The “Lipoprotein Lipase + test compound” value (lipoprotein lipase; triolein substrate 134 μM) was 4.9, the “Lipoprotein Lipase + test compound” value (lipoprotein lipase; triolein substrate 264 μM) was 10.3 and the “Lipoprotein Lipase + test compound” value (lipoprotein lipase; triolein substrate 1000 μM) was 67.4. It also gave an inhibition at 100 µM ([1]; triolein 30 μM) of 63%, an inhibition at 100 µM ([1]; triolein 67 μM) of 56% and an inhibition at 100 µM ([1]; triolein 100 μM) of 51%. It also gave an inhibition at 100 µM ([1]; triolein 201 μM) of 41%, an inhibition at 100 µM ([1]; triolein 400 μM) of 38% and an inhibition at 100 µM ([1]; triolein 601 μM) of 30%. It also gave an inhibition at 100 µM ([1]; triolein 800 μM) of 18% and an inhibition at 100 µM ([1]; triolein 1000 μM) of 15%.

From US20020151581A1, “Glucose and lipid lowering compounds” (priority 1998, published 2002)
